Source: patent US20250197864A1, “LNCRNA TRANSCRIPTS IN MELANOMAGENESIS” (The Regents of the University of California, priority 2021, published 2025)

System: gene expression in D04 melanoma cells
Experiment: RNA-Seq differential expression analysis (DESeq2)
Type: cell-based, human
Protocol: Total RNA was isolated using the RNeasy mini Kit (QIAGEN) following the manufacturer's protocol. Quality check for extracted RNA was done using 2100 Bioanalyzer (Agilent Technologies, USA) or Tapestation System (Agilent Technologies, USA). […] For samples used for identification of MAPK-responsive lncRNAs, paired-end, 101-bp sequencing was performed by Centrillion Genomic Services (Centrillion Biosciences, USA) on an Illumina HiSeq 2000. For DE gene analysis of ASO-transfected D04 samples, paired-end, 2×150-bp sequencing was performed by Genewiz (USA) on a Illumina HiSeq.
Sequence reads were aligned to the human genome (hg19) using TopHat (Version 2.0.11).
Differential expression (DE) analysis was done using DESeq2. Differentially expressed genes were defined by more than 1.5-fold changes (log 2 >0.58 or <−0.58) in expression with FDR<0.05. GO term analysis was done using DAVID Functional Annotation Clustering analysis.
To examine the biomolecular changes upon TRASH-inhibition in melanoma, D04 cells were treated with TRASH-ASOs (SEQ ID NO:15) and Control-ASOs and RNA was extracted and used for RNA-Seq. […] These GO terms consisted of genes encoding growth factors, tyrosine kinases, G protein coupled receptor subunits, and collagen subunits. Scatter plot diagram showing differential gene expression after TRASH-ASO treatment compared to Control-ASO treatment. (cut-off for significance was adjusted p-value <0.05). Data was obtained from RNA-Seq of D04 melanoma cells, treatment period was three days. (FIG. 5c)

[1] = D04 cells, three days, vs Control-ASO, cut off >1.5-fold change and FDR <0.05

GACTGGAGATAATTAA (gapmer, pattern not given here) [SEQ ID NO: 15, GapmeR ASO targeting AC004540.4 (TRASH), exon region of both isoforms; used for in vitro experiments]
log2FoldChange (CATSPERG (ENSG00000099338)): 1.259 | log2FoldChange (CCDC187 (ENSG00000260220)): 2.881 | log2FoldChange (CD274 (ENSG00000120217)): 1.226 | log2FoldChange (CD300C (ENSG00000167850)): 2.474 | log2FoldChange (CDH4 (ENSG00000179242)): 1.668 | log2FoldChange (CELF2 (ENSG00000048740)): −0.6612 | log2FoldChange (CFI (ENSG00000205403)): −0.6803 | log2FoldChange (CHCHD10 (ENSG00000250479)): −0.6153 | log2FoldChange (CHL1 (ENSG00000134121)): −0.6927 | log2FoldChange (CHMP1B2P (ENSG00000278530)): −0.6924 | log2FoldChange (CIITA (ENSG00000179583)): −0.6508 | log2FoldChange (CLDN3 (ENSG00000165215)): 1.402 | log2FoldChange (CNTN1 (ENSG00000018236)): −0.6103 | log2FoldChange (CNTNAP3B (ENSG00000154529)): −0.6749 | log2FoldChange (COL4A5 (ENSG00000188153)): −0.6293 | log2FoldChange (COL20A1 (ENSG00000101203)): 2.951 | log2FoldChange (COL27A1 (ENSG00000196739)): −0.6335 | log2FoldChange (COLGALT2 (ENSG00000198756)): −0.6617 | log2FoldChange (CREB3L3 (ENSG00000060566)): −0.704 | log2FoldChange (CREG2 (ENSG00000175874)): −0.6351 | log2FoldChange (CSF2RB (ENSG00000100368)): 3.672 | log2FoldChange (CSMD3 (ENSG00000164796)): −0.6823 | log2FoldChange (CX3CL1 (ENSG00000006210)): −0.5835 | log2FoldChange (CYP4F32P (ENSG00000223564)): −0.6527 | log2FoldChange (CYP27A1 (ENSG00000135929)): −0.625 | number of genes down-regulated [1]: 574 genes | number of genes up-regulated [1]: 493 genes | log2FoldChange (DAW1 (ENSG00000123977)): 2.338 | log2FoldChange (DBNDD1 (ENSG00000003249)): −0.6098 | log2FoldChange (DCAF8L2 (ENSG00000189186)): −0.6365 | log2FoldChange (DCLK1 (ENSG00000133083)): 2.001 | log2FoldChange (DHRS3 (ENSG00000162496)): −0.6585 | log2FoldChange (DHRS11 (ENSG00000278535)): −0.6876 | log2FoldChange (DLEU7 (ENSG00000186047)): 1.438 | log2FoldChange (DLG4 (ENSG00000132535)): −0.6697 | log2FoldChange (DLX1 (ENSG00000144355)): −0.6655 | log2FoldChange (DMPK (ENSG00000104936)): −0.6857 | log2FoldChange (DNAH6 (ENSG00000115423)): 1.798 | log2FoldChange (DNAH11 (ENSG00000105877)): 1.75 | log2FoldChange (DOK7 (ENSG00000175920)): 1.741 | log2FoldChange (DPF3 (ENSG00000205683)): 1.473 | log2FoldChange (DRGX (ENSG00000165606)): 1.312 | log2FoldChange (DYNC1I2 (ENSG00000077380)): −0.6997 | log2FoldChange (EMILIN1 (ENSG00000138080)): −0.6247 | log2FoldChange (ENO3 (ENSG00000108515)): −0.6026 | log2FoldChange (ENOX1 (ENSG00000120658)): −0.7019 | log2FoldChange (ENOX2 (ENSG00000165675)): −0.6448 | log2FoldChange KDM7A (ENSG00000006459, up-regulated list): 0.6751 | log2FoldChange CCL26 (ENSG00000006606, up-regulated list): 0.6667 | log2FoldChange BIRC3 (ENSG00000023445, up-regulated list): 0.9484 | log2FoldChange NEDD4L (ENSG00000049759, up-regulated list): 0.9476 | log2FoldChange SLC4A8 (ENSG00000050438, up-regulated list): 1.215 | log2FoldChange RRP12 (ENSG00000052749, up-regulated list): 0.614 | log2FoldChange MCF2L2 (ENSG00000053524, up-regulated list): 0.71 | log2FoldChange RASGRF1 (ENSG00000058335, up-regulated list): 1.152 | log2FoldChange MPC1 (ENSG00000060762, up-regulated list): 0.9395 | log2FoldChange GSTO2 (ENSG00000065621, up-regulated list): 0.6503 | log2FoldChange SPTB (ENSG00000070182, up-regulated list): 0.7656 | log2FoldChange ASNS (ENSG00000070669, up-regulated list): 0.7766 | log2FoldChange SLC6A15 (ENSG00000072041, up-regulated list): 0.8053 | log2FoldChange PPP2R3A (ENSG00000073711, up-regulated list): 0.6253 | log2FoldChange FSCN1 (ENSG00000075618, up-regulated list): 0.7766 | log2FoldChange ANKRD13A (ENSG00000076513, up-regulated list): 0.723 | log2FoldChange DCT (ENSG00000080166, up-regulated list): 0.9874 | log2FoldChange ATP8B1 (ENSG00000081923, up-regulated list): 0.9522 | log2FoldChange SERTAD4 (ENSG00000082497, up-regulated list): 0.7371 | log2FoldChange ABCB1 (ENSG00000085563, up-regulated list): 0.7955 | log2FoldChange HSD17B2 (ENSG00000086696, up-regulated list): 0.6195 | log2FoldChange LAT2 (ENSG00000086730, up-regulated list): 0.8215 | log2FoldChange PPP1R15A (ENSG00000087074, up-regulated list): 0.8007 | log2FoldChange LYZ (ENSG00000090382, up-regulated list): 0.9901 | log2FoldChange EPB41L4B (ENSG00000095203, up-regulated list): 1.165 | log2FoldChange TBC1D2 (ENSG00000095383, up-regulated list): 0.7709 | log2FoldChange IL11 (ENSG00000095752, up-regulated list): 1.064 | log2FoldChange DSP (ENSG00000096696, up-regulated list): 0.6307 | log2FoldChange MISP (ENSG00000099812, up-regulated list): 1.058 | log2FoldChange CDHR5 (ENSG00000099834, up-regulated list): 0.8144 | log2FoldChange GGT1 (ENSG00000100031, up-regulated list): 0.8806 | log2FoldChange IL2RB (ENSG00000100385, up-regulated list): 0.8537 | log2FoldChange DHRS2 (ENSG00000100867, up-regulated list): 0.8953 | log2FoldChange PYGB (ENSG00000100994, up-regulated list): 0.8557 | log2FoldChange SLCO4A1 (ENSG00000101187, up-regulated list): 1.202 | log2FoldChange LAMA1 (ENSG00000101680, up-regulated list): 0.7271 | log2FoldChange SYP (ENSG00000102003, up-regulated list): 1.211 | log2FoldChange NECAB2 (ENSG00000103154, up-regulated list): 0.9871 | log2FoldChange NDRG1 (ENSG00000104419, up-regulated list): 0.6175 | log2FoldChange TRMT1 (ENSG00000104907, up-regulated list): 0.655
